In ChEMBL document CHEMBL3734715, “Synthesis and antiproliferativeactivity of new vinca alkaloids containing an α,β-unsaturated aromatic side chain” (Bioorg Med Chem Lett, 2015):
Structures can show the parent of a compound that is named as a salt.

Legend:
Assay type in all cases: functional, cell-based
[1] = system: HepG2; assay: Cytotoxicity against human HepG2 cells after 72 hrs by SRB assay; conditions: HepG2, 72 h
[2] = system: MCF7; assay: Cytotoxicity against human MCF7 cells after 72 hrs by SRB assay; conditions: MCF7, 72 h
[3] = system: Lu1; assay: Cytotoxicity against human Lu1 cells after 72 hrs by SRB assay; conditions: Lu1, 72 h
[4] = system: KB; assay: Cytotoxicity against human KB cells after 72 hrs by SRB assay

SMILES: CC[C@]1(O)C[C@@H]2C[C@](C(=O)OC)(c3cc4c(cc3OC)N(C)[C@H]3[C@@](O)(C(=O)OC)[C@H](OC(C)=O)[C@]5(CC)C=CCN6CC[C@]43[C@@H]65)c3[nH]c4ccccc4c3CC[N@+](CC(=O)/C=C/c3ccc4ccccc4c3)(C2)C1
- IC50 [1]: 18.1 µM
- IC50 [2]: 13.7 µM
- IC50 [3]: 15.1 µM
- IC50 [4]: 30 nM

SMILES: CC[C@]1(O)C[C@@H]2C[C@](C(=O)OC)(c3cc4c(cc3OC)N(C=O)[C@H]3[C@@](O)(C(=O)OC)[C@H](OC(C)=O)[C@]5(CC)C=CCN6CC[C@]43[C@@H]65)c3[nH]c4ccccc4c3CC[N@+](CC(=O)/C=C/c3ccc(O)c(OC)c3)(C2)C1
- IC50 [1]: 2.44 µM
- IC50 [2]: 3.08 µM
- IC50 [3]: 3.45 µM
- IC50 [4]: 1670 nM

SMILES: CC[C@]1(O)C[C@@H]2C[C@](C(=O)OC)(c3cc4c(cc3OC)N(C)[C@H]3[C@@](O)(C(=O)OC)[C@H](OC(C)=O)[C@]5(CC)C=CCN6CC[C@]43[C@@H]65)c3[nH]c4ccccc4c3CC[N@+](CC(=O)/C=C/c3ccc(Cl)cc3)(C2)C1
- IC50 [1]: 7.77 µM
- IC50 [2]: 4.89 µM
- IC50 [3]: 4.25 µM
- IC50 [4]: 60 nM

SMILES: CC[C@]1(O)C[C@@H]2C[C@](C(=O)OC)(c3cc4c(cc3OC)N(C=O)[C@H]3[C@@](O)(C(=O)OC)[C@H](OC(C)=O)[C@]5(CC)C=CCN6CC[C@]43[C@@H]65)c3[nH]c4ccccc4c3CC[N@+](CC(=O)/C=C/c3ccc4ccccc4c3)(C2)C1
- IC50 [1]: 7.94 µM
- IC50 [2]: 11 µM
- IC50 [3]: 12 µM
- IC50 [4]: 80 nM

SMILES: CCC1=C[C@@H]2C[C@](C(=O)OC)(c3cc4c(cc3OC)N(C)[C@H]3[C@@](O)(C(=O)OC)[C@H](OC(C)=O)[C@]5(CC)C=CCN6CC[C@]43[C@@H]65)c3[nH]c4ccccc4c3CC[N@@+](CC(=O)/C=C/c3ccc(Cl)cc3)(C1)C2
- IC50 [1]: 1.75 µM
- IC50 [2]: 1.83 µM
- IC50 [3]: 1.31 µM
- IC50 [4]: 280 nM

SMILES: CCC1=C[C@H]2CN(CCc3c([nH]c4ccccc34)[C@@](C(=O)OC)(c3c(OC)cc(N)cc3OC)C2)C1
- IC50 [1]: 20.4 µM
- IC50 [2]: 21 µM
- IC50 [3]: 19.4 µM
- IC50 [4]: 11500 nM

SMILES: CC[C@]1(O)C[C@@H]2C[C@](C(=O)OC)(c3cc4c(cc3OC)N(C=O)[C@H]3[C@@](O)(C(=O)OC)[C@H](OC(C)=O)[C@]5(CC)C=CCN6CC[C@]43[C@@H]65)c3[nH]c4ccccc4c3CC[N@+](CC(=O)/C=C/c3ccc(Cl)cc3)(C2)C1
- IC50 [1]: 14.2 µM
- IC50 [2]: 10.9 µM
- IC50 [3]: 13.8 µM
- IC50 [4]: 30 nM

SMILES: CCC1=C[C@@H]2C[C@](C(=O)OC)(c3c(OC)cc(N)cc3OC)c3[nH]c4ccccc4c3CC[N@@+](CC(=O)/C=C/c3ccc4ccccc4c3)(C1)C2
- IC50 [1]: 10.9 µM
- IC50 [2]: 11.9 µM
- IC50 [3]: 8.34 µM
- IC50 [4]: 4160 nM

SMILES: CCC1=C[C@@H]2C[C@](C(=O)OC)(c3c(OC)cc(N)cc3OC)c3[nH]c4ccccc4c3CC[N@@+](CC(=O)/C=C/c3ccc(O)c(OC)c3)(C1)C2
- IC50 [1]: 86.8 µM
- IC50 [2]: 94.5 µM
- IC50 [3]: 79 µM
- IC50 [4]: 9110 nM

SMILES: CCC1=C[C@@H]2C[C@](C(=O)OC)(c3c(OC)cc(N)cc3OC)c3[nH]c4ccccc4c3CC[N@@+](CC(=O)/C=C/c3ccc(Cl)cc3)(C1)C2
- IC50 [1]: 20.2 µM
- IC50 [2]: 17.9 µM
- IC50 [3]: 13.8 µM
- IC50 [4]: 6120 nM

SMILES: CCC1=C[C@@H]2C[C@](C(=O)OC)(c3cc4c(cc3OC)N(C)[C@H]3[C@@](O)(C(=O)OC)[C@H](OC(C)=O)[C@]5(CC)C=CCN6CC[C@]43[C@@H]65)c3[nH]c4ccccc4c3CC[N@@+](CC(=O)/C=C/c3ccc(O)c(OC)c3)(C1)C2
- IC50 [1]: 51.5 µM
- IC50 [2]: 50.5 µM
- IC50 [3]: 57.5 µM
- IC50 [4]: 640 nM

SMILES: CCC1=C[C@@H]2C[C@](C(=O)OC)(c3cc4c(cc3OC)N(C)[C@H]3[C@@](O)(C(=O)OC)[C@H](OC(C)=O)[C@]5(CC)C=CCN6CC[C@]43[C@@H]65)c3[nH]c4ccccc4c3CC[N@@+](CC(=O)/C=C/c3ccc4ccccc4c3)(C1)C2
- IC50 [1]: 4.31 µM
- IC50 [2]: 4.82 µM
- IC50 [3]: 3.71 µM
- IC50 [4]: 640 nM

SMILES: CC[C@]1(O)C[C@@H]2C[C@](C(=O)OC)(c3cc4c(cc3OC)N(C)[C@H]3[C@@](O)(C(=O)OC)[C@H](OC(C)=O)[C@]5(CC)C=CCN6CC[C@]43[C@@H]65)c3[nH]c4ccccc4c3CC[N@+](CC(=O)/C=C/c3ccc(O)c(OC)c3)(C2)C1
- IC50 [1]: 7.23 µM
- IC50 [2]: 12.5 µM
- IC50 [3]: 4.8 µM
- IC50 [4]: 1690 nM

SMILES: CC[C@]1(O)C[C@H]2CN(CCc3c([nH]c4ccccc34)[C@@](C(=O)OC)(c3cc4c(cc3OC)N(C)[C@H]3[C@@](O)(C(=O)OC)[C@H](OC(C)=O)[C@]5(CC)C=CCN6CC[C@]43[C@@H]65)C2)C1
- IC50 [1]: 0.34 µM
- IC50 [2]: 0.23 µM
- IC50 [3]: 0.47 µM
- IC50 [4]: 20 nM

SMILES: CCC1=C[C@H]2CN(CCc3c([nH]c4ccccc34)[C@@](C(=O)OC)(c3cc4c(cc3OC)N(C)[C@H]3[C@@](O)(C(=O)OC)[C@H](OC(C)=O)[C@]5(CC)C=CCN6CC[C@]43[C@@H]65)C2)C1
- IC50 [1]: 4.53 µM
- IC50 [2]: 4.63 µM
- IC50 [3]: 5.98 µM
- IC50 [4]: 2060 nM

SMILES: Cc1c2ccncc2c(C)c2c1[nH]c1ccccc12 [ELLIPTECINE]
- IC50 [1]: 2.07 µM
- IC50 [2]: 1.54 µM
- IC50 [3]: 2.31 µM
- IC50 [4]: 1660 nM

SMILES: CC[C@]1(O)C[C@H]2CN(CCc3c([nH]c4ccccc34)[C@@](C(=O)OC)(c3cc4c(cc3OC)N(C=O)[C@H]3[C@@](O)(C(=O)OC)[C@H](OC(C)=O)[C@]5(CC)C=CCN6CC[C@]43[C@@H]65)C2)C1 [VINCRISTINE SULFATE]
- IC50 [1]: 0.69 µM
- IC50 [2]: 0.51 µM
- IC50 [3]: 0.48 µM
- IC50 [4]: 20 nM
